{
  "source": "paper PMC5177656",
  "about": "“Cytosolic Triosephosphate Isomerase from Arabidopsis thaliana Is Reversibly Modified by Glutathione on Cysteines 127 and 218” (Frontiers in Plant Science, 2016)",
  "key": {"[1]": {"target": "GRXC2 (Arabidopsis thaliana, UniProt Q9FNE2)", "sequence (Q9FNE2 whole entry)": "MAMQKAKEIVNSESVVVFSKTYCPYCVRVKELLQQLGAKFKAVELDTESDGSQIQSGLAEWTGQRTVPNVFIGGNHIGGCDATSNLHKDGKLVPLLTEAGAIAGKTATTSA", "test": "GSH-disulfide transhydrogenase assay coupled to glutathione reductase, NADPH at […] nm", "format": "biochemical", "settings": "0.7 mM HED, 1 mM GSH, 0.2 mM NADPH, pH 8.0, 30°C"}, "[2]": {"target": "GRXC1 (Arabidopsis thaliana, UniProt Q8L8T2)", "sequence (Q8L8T2 whole entry)": "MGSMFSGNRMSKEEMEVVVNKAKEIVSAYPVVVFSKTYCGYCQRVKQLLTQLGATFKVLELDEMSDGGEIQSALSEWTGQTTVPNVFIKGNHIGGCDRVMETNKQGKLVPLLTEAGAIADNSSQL", "test": "GSH-disulfide transhydrogenase assay coupled to glutathione reductase, NADPH at […] nm", "format": "biochemical", "settings": "0.7 mM HED, 1 mM GSH, 0.2 mM NADPH, pH 8.0, 30°C"}},
  "data": [
    {"smiles": "OCCSSCCO", "note": "[HED]", "values": [
      {"measurement": "GSH-disulfide transhydrogenase assay coupled to glutathione reductase, NADPH at", "setting": "[1]", "result": "specific activities of recombinant GRXs were measured using the artificial substrate HED"},
      {"measurement": "GSH-disulfide transhydrogenase assay coupled to glutathione reductase, NADPH at", "setting": "[2]", "result": "specific activities of recombinant GRXs were measured using the artificial substrate HED"}
    ]}
  ]
}
